Measurements from patent US9622472B2, “Molecules that induce disease resistance in plants” (The Regents of the University of California, priority 2013, dated 2017).

Key:
[1] = test system: virulent Peronospora isolate Noco2; assay: Noco2 spore inhibition assay in soil-grown Col-0 seedlings; type: in vivo, Hyaloperonospora arabidopsidis (Peronospora)
Method: FIG. 1. Phenyl-imino-methyl-phenol derivatives (PMPs) constitute a large class of new synthetic elicitors. A: Structures of 20 PMP derivatives that were identified by high throughput screening as able to promote expression with the CaBP22 reporter assay. B. CMP199 was further analyzed in the Noco2 spore inhibition assay. Three-week-old soil-grown Col-0 seedlings were spray-infected 24 h after treating with varying concentrations of each synthetic elicitor and then assayed at 7 dpi for spore growth. 100% inhibition=0 spores. The assay was repeated three times with similar results, and the average of those three replicates is shown. DCA=3-5-dicholoroanthranlilic acid; HTC=2-(5-bromo-2-hydroxy-phenyl)-thiazolidine-4-carboxylic acid.
CMP199 (FIG. 1A) was selected for further study to determine whether CMP199 could induce pathogen resistance in soil-grown plants. […] To determine if CMP199 differs from other synthetic elicitors, Col-0 seedlings were treated with DCA or HTC at the indicated concentrations and compared.

[2] = test system: pathogen-responsive CaBP22^−333::GUS reporter gene; settings: transgenic Arabidopsis; reported in Knoth et al. (2009); cited from earlier work
Pseudomonas syringae = settings: Arabidopsis; Knoth et al. (2009); cited from earlier work
[3] = test system: Hyaloperonospora arabidopsidis (Peronospora); settings: Arabidopsis; Knoth et al. (2009); cited from earlier work

| SMILES | induction of disease resistance ([1]; A. thaliana) | inhibition of Noco2 spores, concentration compared with other synthetic elicitors ([1]; Col-0 seedlings, spray-infected 24 h after treating, assayed at 7 dpi, FIG. 1B) | concentration giving significantly reduced numbers of Noco2 spores ([1]; Col-0 sprayed prior to infection, spores 7 days post infection) | induction of pCaBP22^−333::GUS reporter gene [2] | disease resistance triggered (Pseudomonas syringae) | disease resistance triggered [3] |
| --- | --- | --- | --- | --- | --- | --- |
| COc1cccc(N=Cc2cc(Cl)cc(Cl)c2O)c1 [CMP199, 2,4-dichloro-6-[((3-methoxy-phenyl)imino)methyl]-phenol] | able to induce disease resistance in A. thaliana at very low concentration | much lower concentration than DCA or HTC | ≤ 1 µM |  |  |  |
| Nc1c(Cl)cc(Cl)cc1C(=O)O [DCA, 3-5-dicholoroanthranlilic acid] |  |  |  | induce | fast, strong and transient disease resistance | fast, strong and transient disease resistance |
